Test results taken from patent US9084815B2, “Method for treating damage induced by an anti-tumor agent, treating mucositis and treating tumor” (SUCAMPO AG, priority 2009, dated 2015).

Assays:
[1] = system: 5-FU induced toxicity (ileum tissue damage); experiment: Effects of Compound A against 5-FU induced toxicity: histopathological tissue damage score of ileum; format: in vivo; settings: for Total score (tissue damage): 5-FU 50 mg/kg i.p. Day 1 to 4, ileum H&E on Day 7
Protocol: After 1 week of acclimatization period, the experiment started (Day 0). Compound A ((−)-7-{(2R,4aR,5R,7aR)-2-[(3S)-1,1-difluoro-3-methylpentyl]-2-hydroxy-6-oxooctahydrocyclopenta[b]pyran-5-yl}heptanoic acid) (3, 10, 30 μg/kg) or vehicle was administered orally once daily for 5 days from Day 0 to 4 (Schedule 1). In other dosing schedule group, Compound A (30 μg/kg) was administered orally once daily from Day 4 to Day 6 (Schedule 2). 5-FU (50 mg/kg) was administered intraperitoneally once daily for 4 days from Day 1 to 4. On Day 1, 2, 3, and 4,5-FU was administered immediately after administration of Compound A or vehicle. During the experiment period (Day 0-7), animals were weighed every day. On Day 7, the animals were anesthetized by isofluran. Ileum was excised and fixed in 10% formalin. Paraffin-embedded sections were prepared and stained with H&E for histopathological evaluation of tissue damage. The tissue damage was graded according to the following criteria: • 0. No change, • 1: slight, • 2: mild, • 3: moderate, • 4: severe The effect of each compound was evaluated using total score of tissue damage.

[2] = system: stomatitis aggravated by 5-FU (cheek pouch mucosa); experiment: Effects of Compound A on stomatitis: 5-FU plus cheek pouch scratching, hamster; format: in vivo, Golden Syrian hamsters
Protocol: Male Golden Syrian hamsters (5 weeks old) were used. After 1 week acclimatization period, the hamsters were administered intraperitoneally with 60 mg/kg 5-fluorouracil (5-FU) (Day 1). 5-FU administration was repeated again on Day 2. On Day 4, the cheek pouch mucosa of the hamsters is mechanically irritated under anesthesia by superficial scratching with the tip of an 18-gauge needle to produce transient erythema. On Day 8 and 10, the same scratching procedure was conducted and 5-FU administration was done. The Compound A at the doses of 24 μg/site or vehicle was topically applied to the cheek pouches from Day 1 to Day 14. During the treatment, the cheek pouch mucosa was macroscopically observed and the buccal lesion was scored according to the following criteria (stomatitis score): • 0: Normal mucosa • 1: Erythema was observed • 2: Severe erythema was observed • 3: Severe erythema and formation of ulcers in one or more places were observed. Cumulative size of the ulcers involves ˜25% of the pouch mucosa. Pseudomembrane formation was evident. • 4: Severe erythema and formation of ulcers were observed. Cumulative size of the ulcers involved about half of the pouch mucosa. Loss of mucosal pliability. • 5: diffuse, extensive ulceration. Loss of mucosal pliability. […] Severity of stomatitis was evaluated using the mean of scores per treatment group.

Which “Total score (tissue damage)” value ([1]; Compound A 3 μg/kg orally once daily, Schedule 1 (Day 0 to 4)) does the source give for `CC[C@H](C)CC(F)(F)[C@@]1(O)CC[C@H]2[C@@H](CC(=O)[C@@H]2CCCCCCC(=O)O)O1` [Compound A, (−)-7-{(2R,4aR,5R,7aR)-2-[(3S)-1,1-difluoro-3-methylpentyl]-2-hydroxy-6-oxooctahydrocyclopenta[b]pyran-5-yl}heptanoic acid] here?
Its value is 10.0.

And the “Total score (tissue damage)” value ([1]; Compound A 10 μg/kg orally once daily, Schedule 1 (Day 0 to 4))?
The value was 5.0.

What about the “Total score (tissue damage)” value ([1]; Compound A 30 μg/kg orally once daily, Schedule 1 (Day 0 to 4)) of the same compound?
The value was 5.7.

And the “Total score (tissue damage)” value ([1]; Compound A 30 μg/kg orally once daily, Schedule 2 (Day 4 to Day 6))?
The value was 4.3.

What about the “Effect on total score of tissue damage (in words)” value ([1]; at 10 or 30 μg/kg regardless of the dosing schedule) of the same compound?
Its value is “decreased total scores”.

And the “Effect on stomatitis compared to vehicle control group (in words)” value ([2]; 24 μg/site topical, stomatitis aggravated by 5-FU treatment)?
The value was “improved stomatitis”.

What about the “stomatitis score on Day 14 (Mean ± SE)” value ([2]; 24 μg/site topically to cheek pouches Day 1 to Day 14, 5-FU treatment yes, score 0-5, p < 0.05 vs. vehicle control) of the same compound?
The value was 0.25 ± 0.25.
